In one test the target is c-Met (Homo sapiens, UniProt P08581). Description: Cell based ELISA assay for HGF stimulated c-Met phosphorylation in S114 cells. Set-up: expressed in transfected cells; host or cells: S114 (murine NIH 3T3 derived). The following applies: read-out: c-Met Cell ELISA IC-50. (ELISA stands for enzyme-linked immunosorbent assay.)
The test system of another test is HepG2 cells. The test is described as follows: HepG2 cellular scatter assay (HGF-induced, RT-CES impedance). It counts as cell-based. The following applies: Homo sapiens, 40 ng/ml HGF. The text has this:
Human Growth Factor (HGF) and its receptor (c-Met) are involved in cellular motility. Indeed HGF was also identified as Scatter Factor (SF), based on its powerful motility effect on certain cell types. Cellular motility is critical for pathological processes of oncologic disease, most importantly, the establishment of metastatic lesions distant from the primary tumor and formation of new blood vessels (angiogenesis). One therapeutic hypothesis is that this movement of cell types may be blunted or eliminated by the use of c-Met kinase inhibitors. (See: Jiang, W. C, Martin, T. A., Parr, C., Davies, G., Matsumoto, K. and Nakamura, T. Critical Reviews in Oncology/Hematology 53 (2005) 35-69. and references cited therein.) It should also be noted that cellular motility, especially with regard to angiogenesis, is important in other disease states.
Cellular scatter was measured with a Real-Time Cell Electronic Sensing system (RT-CES), from ACEA Biosciences Inc. (San Diego, Calif.). The RT-CES system uses specialized RT-ACE microtiter plates (cat:RCD96, ACEA Biosciences Inc.) to non-invasively quantify cellular status in real-time. The interaction of cells with the surface of the plates, which are integrated with microelectronic sensor arrays, leads to the generation of a cell-electrode impedance response. A higher impedance value indicates more cell attachment and thus less cellular scatter.
50 μl of Assay Media (MEM supplemented with 10% FBS, 2 mM L-glutamine, 1.5 g/L sodium bicarbonate, 1 mM sodium pyruvate, and 0.1 mM non-essential amino acids) was added into 96-well RT-ACE plates and recorded for 30 min on the RT-CES. 50 μl of HepG2 cells (cat: HB-8065, ATCC) were added into each well ([…]). The plate was read in RT-CES and incubated for 20-24 hours. After the 20-24 hours incubation, 50 μl of Assay Media containing different concentrations of testing compounds was added into each well and incubated for 1 hour. Finally, 50 μl of Assay Media containing 160 ng/ml of HGF was added into each well (40 ng/ml in 200 μl). The plate was incubated and read in the RT-CES for 20-24 hours, with a record time every 15 minutes. The positive control was HGF without compounds and negative control was no-HGF without compound. All determinations were performed in duplicate wells and IC50 values were calculated using GraphPad Prism software (GraphPad Software; San Diego, Calif.).

The next test concerns S114 tumors. Description: S114 tumor model. It counts as in vivo, athymic nude mice. The following applies: 100 mg/kg p.o. q.d., four consecutive days, five mice. The protocol:
Female athymic nude mice were inoculated subcutaneously in the left inguinal region of the thigh with 5×10^6 S114 cells in a delivery volume of 0.1 mL. Tumors were allowed to grow to for five days. Mice were dosed orally at 100 mg/kg compound in 20% HPBCD or with vehicle (20% HPBCD, control group). Dosing was continued for 4 consecutive days. On the day of study termination, tumors were immediately excised intact and weighed, with final tumor wet weight (grams) serving as a primary efficacy endpoint.
Female athymic nude mice (CD-1, nu/nu, 9-10 weeks old) were obtained from Charles River Laboratories (Wilmington, Mass.) and were maintained according to NIH standards. All mice were group housed (5 mice/cage) under clean-room conditions in sterile micro-isolator cages on a 12-hour light/dark cycle in a room maintained at 21-22° C. and 40-50% humidity. […]
The murine NIH 3T3 derived cell line S114, which has been engineered to over-express both Human Growth Factor (HGF) and the human c-Met receptor, was propagated in DMEM media (Life Technologies, Bethesda, Md.). Immediately prior to injection, cells were washed counted and resuspended in PBS. […]
Mice were dosed orally at 100 mg/kg compound in 20% HPBCD or with vehicle (20% HPBCD, control group). […] Body weight was measured at the end of the study and a loss of body weight >10% was used as an indication of lack of compound tolerability. […]

The source of these data is patent publication US8173654B2, “Triazolopyridazine compounds” (Janssen Pharmaceutica N.V., priority 2005, dated 2012).

Sequence of c-Met (P08581 25-1390): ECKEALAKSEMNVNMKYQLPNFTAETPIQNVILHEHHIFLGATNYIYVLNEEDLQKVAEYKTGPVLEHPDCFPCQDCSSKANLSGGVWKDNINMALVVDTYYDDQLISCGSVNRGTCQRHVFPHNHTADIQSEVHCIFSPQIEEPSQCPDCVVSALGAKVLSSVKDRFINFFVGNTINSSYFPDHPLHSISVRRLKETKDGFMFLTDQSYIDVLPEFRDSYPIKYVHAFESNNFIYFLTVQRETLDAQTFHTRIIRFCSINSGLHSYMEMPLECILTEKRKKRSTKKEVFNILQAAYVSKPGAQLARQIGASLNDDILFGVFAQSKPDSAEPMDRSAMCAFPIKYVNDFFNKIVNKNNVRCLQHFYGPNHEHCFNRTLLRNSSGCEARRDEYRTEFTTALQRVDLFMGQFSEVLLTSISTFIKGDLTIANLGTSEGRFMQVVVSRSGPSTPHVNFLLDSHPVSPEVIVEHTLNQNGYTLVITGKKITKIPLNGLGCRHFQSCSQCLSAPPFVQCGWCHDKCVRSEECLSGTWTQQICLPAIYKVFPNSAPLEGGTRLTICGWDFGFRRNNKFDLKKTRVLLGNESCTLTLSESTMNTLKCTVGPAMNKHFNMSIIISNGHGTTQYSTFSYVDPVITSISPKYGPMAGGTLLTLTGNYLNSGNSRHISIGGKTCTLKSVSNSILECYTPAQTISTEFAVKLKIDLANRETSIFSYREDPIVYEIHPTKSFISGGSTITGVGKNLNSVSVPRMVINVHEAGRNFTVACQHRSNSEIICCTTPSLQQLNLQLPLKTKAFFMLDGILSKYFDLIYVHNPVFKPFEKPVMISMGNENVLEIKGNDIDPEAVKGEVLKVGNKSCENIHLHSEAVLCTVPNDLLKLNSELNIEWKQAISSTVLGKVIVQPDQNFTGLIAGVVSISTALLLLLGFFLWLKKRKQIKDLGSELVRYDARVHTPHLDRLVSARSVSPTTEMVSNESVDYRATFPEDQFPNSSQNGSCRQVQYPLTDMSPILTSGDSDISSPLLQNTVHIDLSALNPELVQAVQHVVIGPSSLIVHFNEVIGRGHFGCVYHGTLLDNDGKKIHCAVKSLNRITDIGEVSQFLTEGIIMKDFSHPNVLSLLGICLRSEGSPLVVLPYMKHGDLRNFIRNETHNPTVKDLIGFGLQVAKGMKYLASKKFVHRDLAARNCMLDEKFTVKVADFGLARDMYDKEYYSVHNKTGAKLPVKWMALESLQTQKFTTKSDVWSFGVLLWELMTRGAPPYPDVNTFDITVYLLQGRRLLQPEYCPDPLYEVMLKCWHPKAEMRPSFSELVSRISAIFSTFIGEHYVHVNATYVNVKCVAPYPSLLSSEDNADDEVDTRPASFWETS

For the molecule `Cn1cc(-c2ccc3nnc(C(F)(F)c4ccc5ncccc5c4)n3n2)cn1` [Example 61, 6-{Difluoro-[6-(1-methyl-1H-pyrazol-4-yl)-[1,2,4]triazolo[4,3-b]pyridazin-3-yl]-methyl}-quinoline], the IC50 at c-Met was 2 nM; in the test with HepG2 cells, 106 nM. Moreover, the “mice with tumors regressed to non-palpable, non-detectable tumors by the end of the study” value in the test with S114 tumors was “three of the five mice”. In addition, the “regression of S114 tumors” value in the test on S114 tumors is recorded as “regressed in all five mice”.
